# Assay results taken from patent publication US6355799B1, “Substituted benzene compounds, process for their preparation, and herbicidal and defoliant compositions containing them” (ISK Americas Incorporated, priority 1997, dated 2002).
# How the values were obtained:
# Format in all cases: in vivo
# [1] = system: redroot pigweed (Amaranthus retroflexus, AMARE); experiment: Pre-emerge test, greenhouse herbicide activity screening; details: pre-emerge, 14 days after application, scale 0-100
# Outline: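 Visual ratings on a 0-100 scale (0 no damage, 100 all plants dead) were taken at 14 days after treatment. Rates of 15-1000 g ai/ha in acetone, 187 l/ha, were sprayed onto soil one day after planting (pre-emerge) or onto 2-3 leaf plants with 0.25% v/v surfactant (post-emerge).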
# [2] = system: barnyardgrass (Echinochloa crus-galli, ECHCG); experiment: as above; details: pre-emerge, 14 days after application, scale 0-100
# Outline: (§1)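 Compounds in acetone were track-sprayed at 15-1000 g ai/ha (187 l/ha) on sandy loam pots: pre-emerge one day after seeding, post-emerge at 2-3 leaf stage with 0.25% v/v non-ionic surfactant. Phytotoxicity was rated 14 days later on a 0 (no damage) to 100 (complete death) scale.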
# [3] = system: green foxtail (Setaria viridis, SETVI); experiment: as above; details: pre-emerge, 14 days after application, scale 0-100
# Outline: as §1
# [4] = system: ivyleaf morningglory (Ipomoea hederacea, IPOHE); experiment: as above; details: pre-emerge, 14 days after application, scale 0-100
# Outline: as §1
# [5] = system: johnsongrass (Sorghum halepense, SORHA); experiment: as above; details: pre-emerge, 14 days after application, scale 0-100
# Outline: as §1
# [6] = system: lambsquarters (Chenopodium album, CHEAL); experiment: as above; details: pre-emerge, 14 days after application, scale 0-100
# Outline: as §1
# [7] = system: large crabgrass (Digitaria sanguinalis, DIGSA); experiment: as above; details: pre-emerge, 14 days after application, scale 0-100
# Outline: as §1
# [8] = system: sicklepod (Cassia obtusifolia, CASOB); experiment: as above; details: pre-emerge, 14 days after application, scale 0-100
# Outline: as §1
# [9] = system: velvetleaf (Abutilon theophrasti, ABUTH); experiment: as above; details: pre-emerge, 14 days after application, scale 0-100
# Outline: as §1
# [10] = system: field corn (Zea mays L., var. Dekalb 535, CORN); experiment: Pre-emerge test, crop safety; details: pre-emerge, 14 days after application, scale 0-100
# Outline: (§2)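 Applied at 15–1000 g ai/ha from acetone in 187 l/ha spray volume. Post-emergence applications included 0.25% v/v non-ionic surfactant and reached plants sown 8–21 days before. Pre-emergence applications were incorporated by surface watering. Efficacy or crop damage was rated on a 0–100 scale after 14 days.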
# [11] = system: upland rice (Oryza sp., var. Tebonnet, RICE); experiment: Pre-emerge test, crop safety; details: pre-emerge, 14 days after application, scale 0-100
# Outline: as §2
# [12] = system: barnyardgrass (Echinochloa crus-galli, ECHCG); experiment: Post-emerge test, greenhouse herbicide activity screening; details: post-emerge, 14 days after application, rating scale 0-100
# Outline: (§3)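 Sandy loam pots; pre-emerge: sown 1 d pre-spray, surface-watered after, then bottom-watered. Post-emerge: sown 8–21 d before, 2–3 leaf stage, + 0.25% v/v NIS, bottom-watered. Acetone, 187 l/ha track spray, 15–1000 g ai/ha. 0–100 injury score, day 14.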
# [13] = system: green foxtail (Setaria viridis, SETVI); experiment: as above; details: post-emerge, 14 days after application, rating scale 0-100
# Outline: as §3
# [14] = system: ivyleaf morningglory (Ipomoea hederacea, IPOHE); experiment: as above; details: post-emerge, 14 days after application, rating scale 0-100
# Outline: as §3
# [15] = system: lambsquarters (Chenopodium album, CHEAL); experiment: as above; details: post-emerge, 14 days after application, rating scale 0-100
# Outline: as §3
# [16] = system: large crabgrass (Digitaria sanguinalis, DIGSA); experiment: as above; details: post-emerge, 14 days after application, rating scale 0-100
# Outline: as §3
# [17] = system: redroot pigweed (Amaranthus retroflexus, AMARE); experiment: as above; details: post-emerge, 14 days after application, rating scale 0-100
# Outline: as §3
# [18] = system: sicklepod (Cassia obtusifolia, CASOB); experiment: as above; details: post-emerge, 14 days after application, rating scale 0-100
# Outline: as §3
# [19] = system: velvetleaf (Abutilon theophrasti, ABUTH); experiment: as above; details: post-emerge, 14 days after application, rating scale 0-100
# Outline: as §3
# [20] = system: field corn (Zea mays L., var. Dekalb 535, CORN); experiment: Post-emerge test, crop safety; details: post-emerge, 14 days after application, rating scale 0-100
# Outline: as §1
# [21] = system: upland rice (Oryza sp., var. Tebonnet, RICE); experiment: Post-emerge test, crop safety; details: post-emerge, 14 days after application, rating scale 0-100
# Outline: as §1
structure (smiles),measurement,setting,value
Cn1c(C(F)(F)F)cc(=O)n(-c2ccc(Cl)cc2NC(=O)C=Cc2ccccc2)c1=O [2-137],phytotoxicity rating AMARE,[1]; 63 g ai/ha,100
same,phytotoxicity rating AMARE,[1]; 250 g ai/ha,100
same,phytotoxicity rating ECHCG,[2]; 63 g ai/ha,10
same,phytotoxicity rating ECHCG,[2]; 250 g ai/ha,50
same,phytotoxicity rating SETVI,[3]; 63 g ai/ha,30
same,phytotoxicity rating SETVI,[3]; 250 g ai/ha,60
same,phytotoxicity rating IPOHE,[4]; 63 g ai/ha,30
same,phytotoxicity rating IPOHE,[4]; 250 g ai/ha,30
same,phytotoxicity rating SORHA,[5]; 63 g ai/ha,0
same,phytotoxicity rating SORHA,[5]; 250 g ai/ha,70
same,phytotoxicity rating CHEAL,[6]; 63 g ai/ha,100
same,phytotoxicity rating CHEAL,[6]; 250 g ai/ha,100
same,phytotoxicity rating DIGSA,[7]; 63 g ai/ha,50
same,phytotoxicity rating DIGSA,[7]; 250 g ai/ha,100
same,phytotoxicity rating CASOB,[8]; 63 g ai/ha,50
same,phytotoxicity rating CASOB,[8]; 250 g ai/ha,50
same,phytotoxicity rating ABUTH,[9]; 63 g ai/ha,80
same,phytotoxicity rating ABUTH,[9]; 250 g ai/ha,100
same,phytotoxicity rating CORN (crop damage),[10]; 63 g ai/ha,0
same,phytotoxicity rating CORN (crop damage),[10]; 250 g ai/ha,10
same,phytotoxicity rating RICE (crop damage),[11]; 63 g ai/ha,20
same,phytotoxicity rating RICE (crop damage),[11]; 250 g ai/ha,50
same,ECHCG phytotoxicity rating,[12]; 63 g ai/ha,0
same,ECHCG phytotoxicity rating,[12]; 250 g ai/ha,30
same,SETVI phytotoxicity rating,[13]; 63 g ai/ha,10
same,SETVI phytotoxicity rating,[13]; 250 g ai/ha,30
same,IPOHE phytotoxicity rating,[14]; 63 g ai/ha,100
same,IPOHE phytotoxicity rating,[14]; 250 g ai/ha,90
same,CHEAL phytotoxicity rating,[15]; 63 g ai/ha,100
same,CHEAL phytotoxicity rating,[15]; 250 g ai/ha,100
same,DIGSA phytotoxicity rating,[16]; 63 g ai/ha,0
same,DIGSA phytotoxicity rating,[16]; 250 g ai/ha,10
same,AMARE phytotoxicity rating,[17]; 63 g ai/ha,100
same,AMARE phytotoxicity rating,[17]; 250 g ai/ha,100
same,CASOB phytotoxicity rating,[18]; 63 g ai/ha,100
same,CASOB phytotoxicity rating,[18]; 250 g ai/ha,90
same,ABUTH phytotoxicity rating,[19]; 63 g ai/ha,100
same,ABUTH phytotoxicity rating,[19]; 250 g ai/ha,100
same,CORN phytotoxicity rating (crop damage),[20]; 63 g ai/ha,10
same,CORN phytotoxicity rating (crop damage),[20]; 250 g ai/ha,60
same,RICE phytotoxicity rating (crop damage),[21]; 63 g ai/ha,10
same,RICE phytotoxicity rating (crop damage),[21]; 250 g ai/ha,70
